Test system: TFG-MET allograft tumors
Assay: RNA-sequencing, differential expression and GSEA of TFG-MET allograft tumors
Assay type: in vivo, mouse
Conditions: CAP v Veh
Description: Error bars display standard error of mean, statistical significance was determined using t-test analysis. (****;p<0.0001, ***;p<0.001, **;p<0.01, *;p<0.05). […] Each dot represents an individual replicate. Error bars display standard error of the mean.
Each dot represents one gene.

CNC(=O)c1ccc(-c2cnc3ncc(Cc4ccc5ncccc5c4)n3n2)cc1F [Capmatinib]
ES (GOMF_3_5_DNA_HELICASE_ACTIVITY): -0.6834 | NES (GOMF_3_5_DNA_HELICASE_ACTIVITY, padj 0.00671103): -1.906 | ES (GOMF_ACTIVATING_TRANSCRIPTION_FACTOR_BINDING): -0.4071 | NES (GOMF_ACTIVATING_TRANSCRIPTION_FACTOR_BINDING, padj 0.0419799): -1.5828 | ES (GOMF_ALPHA_ACTININ_BINDING): -0.5133 | NES (GOMF_ALPHA_ACTININ_BINDING, padj 0.0520078): -1.603 | ES (GOMF_AMYLOID_BETA_BINDING): 0.3131 | NES (GOMF_AMYLOID_BETA_BINDING, padj 0.0419799): 1.527 | ES (GOMF_ANTIOXIDANT_ACTIVITY): 0.3898 | NES (GOMF_ANTIOXIDANT_ACTIVITY, padj 0.0072907): 1.809 | ES (GOMF_ATPASE_COUPLED_ION_TRANSMEMBRANE_TRANSPORTER_ACTIVITY): 0.474 | NES (GOMF_ATPASE_COUPLED_ION_TRANSMEMBRANE_TRANSPORTER_ACTIVITY, padj 0.00463): 2.003 | ES (GOMF_BETA_2_MICROGLOBULIN_BINDING): 0.5632 | NES (GOMF_BETA_2_MICROGLOBULIN_BINDING, padj 0.0448774): 1.801 | ES (GOMF_CALCIUM_DEPENDENT_PROTEIN_BINDING): 0.337 | NES (GOMF_CALCIUM_DEPENDENT_PROTEIN_BINDING, padj 0.0607303): 1.56 | ES (GOMF_CARBOHYDRATE_BINDING): 0.2512 | NES (GOMF_CARBOHYDRATE_BINDING, padj 0.0202682): 1.428 | ES (GOMF_CARBOXYLIC_ESTER_HYDROLASE_ACTIVITY): 0.3196 | NES (GOMF_CARBOXYLIC_ESTER_HYDROLASE_ACTIVITY, padj 0.00853155): 1.6126 | ES (GOMF_CATALYTIC_ACTIVITY_ACTING_ON_A_TRNA): -0.5808 | NES (GOMF_CATALYTIC_ACTIVITY_ACTING_ON_A_TRNA, padj 7.15005e-11): -2.431 | ES (GOMF_CATALYTIC_ACTIVITY_ACTING_ON_DNA): -0.5359 | NES (GOMF_CATALYTIC_ACTIVITY_ACTING_ON_DNA, padj 5.51748e-13): -2.374 | ES (GOMF_CATION_CATION_ANTIPORTER_ACTIVITY): 0.4863 | NES (GOMF_CATION_CATION_ANTIPORTER_ACTIVITY, padj 0.0546567): 1.7655 | ES (GOMF_CATION_TRANSMEMBRANE_TRANSPORTER_ACTIVITY): 0.1933 | NES (GOMF_CATION_TRANSMEMBRANE_TRANSPORTER_ACTIVITY, padj 0.0600708): 1.207 | ES (GOMF_COA_HYDROLASE_ACTIVITY): 0.52 | NES (GOMF_COA_HYDROLASE_ACTIVITY, padj 0.0696276): 1.759 | ES (GOMF_CORE_PROMOTER_SEQUENCE_SPECIFIC_DNA_BINDING): -0.4562 | NES (GOMF_CORE_PROMOTER_SEQUENCE_SPECIFIC_DNA_BINDING, padj 0.072132): -1.575 | ES (GOMF_CYTOKINE_BINDING): 0.2766 | NES (GOMF_CYTOKINE_BINDING, padj 0.0484841): 1.402 | ES (GOMF_CYTOKINE_RECEPTOR_ACTIVITY): 0.3569 | NES (GOMF_CYTOKINE_RECEPTOR_ACTIVITY, padj 0.00978552): 1.74 | ES (GOMF_DELAYED_RECTIFIER_POTASSIUM_CHANNEL_ACTIVITY): 0.4424 | NES (GOMF_DELAYED_RECTIFIER_POTASSIUM_CHANNEL_ACTIVITY, padj 0.0600708): 1.691 | ES (GOMF_DEMETHYLASE_ACTIVITY): -0.5386 | NES (GOMF_DEMETHYLASE_ACTIVITY, padj 0.0072907): -1.838 | ES (GOMF_DNA_BINDING_TRANSCRIPTION_ACTIVATOR_ACTIVITY): -0.3206 | NES (GOMF_DNA_BINDING_TRANSCRIPTION_ACTIVATOR_ACTIVITY, padj 0.00368803): -1.494 | ES (GOMF_DNA_BINDING_TRANSCRIPTION_REPRESSOR_ACTIVITY): -0.3134 | NES (GOMF_DNA_BINDING_TRANSCRIPTION_REPRESSOR_ACTIVITY, padj 0.0381242): -1.423 | ES (GOMF_DNA_HELICASE_ACTIVITY): -0.6746 | NES (GOMF_DNA_HELICASE_ACTIVITY, padj 6.80206e-12): -2.633 | ES (GOMF_DNA_POLYMERASE_ACTIVITY): -0.499 | NES (GOMF_DNA_POLYMERASE_ACTIVITY, padj 0.057276): -1.624 | ES (GOMF_DNA_POLYMERASE_BINDING): -0.6079 | NES (GOMF_DNA_POLYMERASE_BINDING, padj 0.0319688): -1.763 | ES (GOMF_DOUBLE_STRANDED_RNA_BINDING): -0.4239 | NES (GOMF_DOUBLE_STRANDED_RNA_BINDING, padj 0.0120781): -1.66 | ES (GOMF_ENDONUCLEASE_ACTIVITY): -0.4125 | NES (GOMF_ENDONUCLEASE_ACTIVITY, padj 0.00509455): -1.716 | ES (GOMF_ENDONUCLEASE_ACTIVITY_ACTIVE_WITH_EITHER_RIBO_OR_DEOXYRIBONUCLEIC_ACIDS_AND_PRODUCING_5_PHOSPHOMONOESTERS): -0.5195 | NES (GOMF_ENDONUCLEASE_ACTIVITY_ACTIVE_WITH_EITHER_RIBO_OR_DEOXYRIBONUCLEIC_ACIDS_AND_PRODUCING_5_PHOSPHOMONOESTERS, padj 0.00950889): -1.794 | ES (GOMF_ENDOPEPTIDASE_REGULATOR_ACTIVITY): 0.2991 | NES (GOMF_ENDOPEPTIDASE_REGULATOR_ACTIVITY, padj 0.0132396): 1.521 | ES (GOMF_ENDORIBONUCLEASE_ACTIVITY): -0.4748 | NES (GOMF_ENDORIBONUCLEASE_ACTIVITY, padj 0.00565255): -1.786 | ES (GOMF_ENDORIBONUCLEASE_ACTIVITY_PRODUCING_5_PHOSPHOMONOESTERS): -0.5711 | NES (GOMF_ENDORIBONUCLEASE_ACTIVITY_PRODUCING_5_PHOSPHOMONOESTERS, padj 0.0162496): -1.81 | ES (GOMF_FATTY_ACID_BINDING): 0.4525 | NES (GOMF_FATTY_ACID_BINDING, padj 0.0492693): 1.741 | NES (GOMF_FOUR_WAY_JUNCTION_DNA_BINDING, padj 0.0177962): -1.783 | NES (GOMF_GLUTATHIONE_PEROXIDASE_ACTIVITY, padj 0.00790825): 2.092 | ES (GOMF_GLYCOLIPID_BINDING): 0.506 | NES (GOMF_GLYCOLIPID_BINDING, padj 0.0202682): 1.835 | ES (GOMF_GUANYL_NUCLEOTIDE_BINDING): -0.2896 | NES (GOMF_GUANYL_NUCLEOTIDE_BINDING, padj 0.0419799): -1.351 | ES (GOMF_HEAT_SHOCK_PROTEIN_BINDING): -0.3614 | NES (GOMF_HEAT_SHOCK_PROTEIN_BINDING, padj 0.0624118): -1.511 | ES (GOMF_HEME_COPPER_TERMINAL_OXIDASE_ACTIVITY): 0.566 | NES (GOMF_HEME_COPPER_TERMINAL_OXIDASE_ACTIVITY, padj 0.00343436): 2.052 | ES (GOMF_HISTONE_DEACETYLASE_BINDING): -0.365 | NES (GOMF_HISTONE_DEACETYLASE_BINDING, padj 0.0452435): -1.507 | ES (GOMF_HYDROLASE_ACTIVITY_ACTING_ON_ACID_ANHYDRIDES): -0.3454 | ES (GOMF_HYDROLASE_ACTIVITY_ACTING_ON_CARBON_NITROGEN_BUT_NOT_PEPTIDE_BONDS_IN_CYCLIC_AMIDINES): -0.5898 | NES (GOMF_HYDROLASE_ACTIVITY_ACTING_ON_CARBON_NITROGEN_BUT_NOT_PEPTIDE_BONDS_IN_CYCLIC_AMIDINES, padj 0.00629559): -1.842 | ES (GOMF_ION_TRANSMEMBRANE_TRANSPORTER_ACTIVITY): 0.1805 | NES (GOMF_ION_TRANSMEMBRANE_TRANSPORTER_ACTIVITY, padj 0.0667134): 1.183 | ES (GOMF_ISOMERASE_ACTIVITY): -0.3436 | NES (GOMF_ISOMERASE_ACTIVITY, padj 0.0410059): -1.472 | ES (GOMF_KINASE_BINDING): -0.2712 | NES (GOMF_KINASE_BINDING, padj 0.019253): -1.314 | ES (GOMF_KINASE_INHIBITOR_ACTIVITY): -0.4003 | ES (GOMF_KINASE_REGULATOR_ACTIVITY): -0.3132 | NES (GOMF_KINASE_REGULATOR_ACTIVITY, padj 0.0543588): -1.396 | ES (GOMF_LIGASE_ACTIVITY_FORMING_CARBON_NITROGEN_BONDS): -0.4994 | NES (GOMF_LIGASE_ACTIVITY_FORMING_CARBON_NITROGEN_BONDS, padj 0.0116225): -1.777 | ES (GOMF_LYSINE_ACETYLATED_HISTONE_BINDING): -0.5519 | NES (GOMF_LYSINE_ACETYLATED_HISTONE_BINDING, padj 0.0564834): -1.63 | ES (GOMF_LYSOPHOSPHOLIPASE_ACTIVITY): 0.4699 | NES (GOMF_LYSOPHOSPHOLIPASE_ACTIVITY, padj 0.0722653): 1.706 | ES (GOMF_MAGNESIUM_ION_BINDING): -0.3426 | NES (GOMF_MAGNESIUM_ION_BINDING, padj 0.0134631): -1.518 | NES (GOMF_MAP_KINASE_KINASE_KINASE_ACTIVITY, padj 0.0759934): -1.58 | ES (GOMF_METALLOENDOPEPTIDASE_ACTIVITY): -0.4444 | NES (GOMF_METALLOENDOPEPTIDASE_ACTIVITY, padj 0.00334688): -1.785 | ES (GOMF_METALLOPEPTIDASE_ACTIVITY): -0.3671 | NES (GOMF_METALLOPEPTIDASE_ACTIVITY, padj 0.0120781): -1.581 | ES (GOMF_METHYL_CPG_BINDING): -0.6439
